Results reported in patent US20170030926A1, “MARKER OF NEUROPATHIC GAUCHER'S DISEASE AND METHODS OF USE THEREOF” (Yeda Research and Development Co. Ltd., priority 2014, published 2017).

How the values were obtained:
[1] = Therapeutic effect on the brain in Type 3 GD patients on long-term ERT and miglustat; assay type: in vivo, human; conditions: long-term treatment
Excerpt: Spinal fluid samples were collected for biomarker discovery from patients with Type 3 GD and age-matched control subjects.

GPNMB = GPNMB levels in CSF and brain homogenates of CBE treated mice by ELISA; assay type: in vivo
Method: (§1) C57BL/6OlaHsd mice were used as another model of nGD, in which the disease is induced by intra-peritoneal (IP) injection with 100 mg/Kg/day conduritol b epoxide ([…], calbiochem), an irreversible GCase inhibitor.
Mice were anesthetized (100mg/kg Ketamine and 10 mg/Kg xylazine) and CSF was aspired from the Cisterna magna using glass needles. Brain tissues were removed and lysed in ˜6 volumes of Ripa buffer (150 mM sodium chloride, 1.0% Triton X-100, 0.5% sodium deoxycholate, 0.1% SDS, 50 mM Tris, pH 8.0) supplemented with a protease inhibitor mixture (Sigma). Following homogenization, samples were centrifuged at 4500gav for 5 min at 4° C., and the supernatant was collected. Protein level was quantified using the BCA protein assay reagent (Pierce Chemical Co.) GPNMB was measured using the mouse GPNMB ELISA kit (R&D systems) According to manufacturer's protocol.
(§2) Correlation of CSF levels of GPNMB and nGD symptoms was further verified using an additional mouse model of GD, where mice are induced for GD by injections of conduritol b epoxide (CBE), a GCase inhibitor. 100 mg/Kg/day of CBE were daily injected into mice starting on day 15 post-natal. On day 30 the mice were divided into three groups: “CBE D15-30” in which CBE injections were ceased on day 30, “CBE D15-30; PBS D31-41” in which CBE injections were ceased on day 30 and the mice continued to receive phosphate buffered saline (PBS) injections until day 41, and “CBE D15-41”, in which CBE injections were continued to day 41. An additional group of mice was injected with PBS during the entire experiment (“PBS”) and served as a control (FIG. 4A). Mice body weight, a simple indicator of disease progression, was measured daily during the experiment and the results are shown in FIG. 4B.
CSF was aspirated from the Cisterna magna of the mice and GPNMB levels were measured in both CSF (FIG. 4C) and brain homogenates (FIG. 4D) by ELISA. […] Remarkably, GPNMB levels rapidly declined during the recovery period. More specifically, GPNMB levels in the CSF and brain increased upon injection of CBE from day 15-30 and to a higher extent with injection until day 41.

[2] = Body weight of mice induced for GD by daily CBE injections; assay type: in vivo, C57BL/6OlaHsd mice
Method: as §1, §2

[3] = compared with mice continuously treated with CBE until day 41

| Structure (SMILES) | therapeutic effect on the brain [1] | GPNMB level in CSF (GPNMB; CBE treated mice vs PBS control, ELISA) | GPNMB level in brain (GPNMB; CBE treated mice vs PBS control, brain homogenates, ELISA) | GPNMB level in CSF on day 41 after cessation of CBE on day 30 (GPNMB; [3]) | GPNMB level in brain on day 41 after cessation of CBE on day 30 (GPNMB; [3]) | time until body weight began to decrease after beginning CBE injections ([2]; 100 mg/Kg/day IP daily from day 15 post-natal, body weight as indicator of disease progression) | body weight course after CBE injections ceased ([2]; CBE D15-30, PBS D31-41 group) | body weight course with continued CBE injections ([2]; CBE D15-41 group, 100 mg/Kg/day) |
| --- | --- | --- | --- | --- | --- | --- | --- | --- |
| CCCCN1C[C@H](O)[C@@H](O)[C@H](O)[C@H]1CO [miglustat] | neither had any therapeutic effect on the brain | – | – | – | – | – | – | – |
| O[C@H]1[C@H](O)[C@@H](O)[C@@H]2O[C@@H]2[C@@H]1O (racemic) [CBE, conduritol b epoxide] | – | marked elevation | marked elevation | significantly lower level | significantly lower level | 10 to 12 days | began to gain weight | continued to decrease until day 41 |
